Experimental data from PMC9181188 (International Journal of Molecular Sciences, 2022).
In brackets after ≈: the same amount, converted by molar mass. Like-named read-outs stand apart in the source and are kept apart here.

How the values were obtained:
[1] = test system: HaCaT cells; experiment: MTT assay, HaCaT normal cells; format: cell-based; details: human immortal keratinocyte cell line, 72 h, mean ± SD
[2] = test system: S. epidermidis KR 4047 825/19; experiment: MIC, clinical S. epidermidis strain; format: cell-based; details: Staphylococcus epidermidis, KR4047825/19, quinolone-resistant, 18 h of treatment
[3] = test system: S. aureus ATCC 6538; experiment: MIC, twofold microdilution, standard strain; format: cell-based; details: Staphylococcus aureus, read-out: MIC S. aureus ATCC 6538
[4] = test system: S. epidermidis KR 4243 829/19; experiment: MIC, clinical S. epidermidis strain; format: cell-based; details: Staphylococcus epidermidis, KR4243829/19, quinolone-susceptible, 18 h of treatment
[5] = test system: M. tuberculosis Spec. 192 (Sensitive to Tuberculostatics); experiment: MABA (microplate Alamar blue assay) MIC; format: cell-based; details: Mycobacterium tuberculosis, 336 h, read-out: MIC M. tuberculosis Spec. 192 (Sensitive to Tuberculostatics)
[6] = test system: S. aureus ATCC 25923; experiment: MIC, twofold microdilution, standard strain; format: cell-based; details: Staphylococcus aureus, read-out: MIC S. aureus ATCC 25923
[7] = test system: S. aureus ATCC 29213; experiment: MIC, twofold microdilution, standard strain; format: cell-based; details: Staphylococcus aureus, read-out: MIC S. aureus ATCC 29213
[8] = test system: SW620 cells; experiment: MTT assay, SW620; format: cell-based, human; details: for IC50: Homo sapiens, SW-620, 72 h, human metastatic colon cancer, 72 h, MTT, mean ± SD; for SI SW620: SI = IC50 for normal cell line (HaCaT)/IC50 cancer cell line
[9] = test system: SW480, SW620, and PC3 cancer cell lines; experiment: MTT assay, cancer cell lines as a group; format: cell-based, human; details: 72 h, all three cancer cell lines (SW480, SW620, PC3), read-out: IC50 against all tested cancer cell lines
[10] = test system: PC3 cells; experiment: MTT assay, PC3; format: cell-based, human; details: for SI PC3: SI = IC50 for normal cell line (HaCaT)/IC50 cancer cell line; for IC50: Homo sapiens, PC-3, 72 h, human metastatic prostate cancer, 72 h, MTT, mean ± SD
[11] = test system: S. epidermidis ATCC 35984; experiment: MIC, twofold microdilution, standard strain; format: cell-based; details: Staphylococcus epidermidis, read-out: MIC S. epidermidis ATCC 35984
[12] = test system: S. epidermidis KR 4358/2 840/19; experiment: MIC, clinical S. epidermidis strain; format: cell-based; details: Staphylococcus epidermidis, read-out: MIC KR 4358/2 840/19
[13] = test system: SW480 cells; experiment: MTT assay, SW480; format: cell-based, human; details: for IC50: Homo sapiens, SW480, 72 h, human primary colon cancer, 72 h, MTT, mean ± SD; for SI SW480: SI = IC50 for normal cell line (HaCaT)/IC50 cancer cell line
[14] = test system: E. coli ATCC 25922; experiment: MIC, twofold microdilution, standard strain; format: cell-based, Escherichia coli; details: Escherichia coli, read-out: MIC E. coli ATCC 25922
[15] = test system: P. aeruginosa ATCC 27853; experiment: MIC, twofold microdilution, standard strain; format: cell-based; details: Pseudomonas aeruginosa, read-out: MIC P. aeruginosa ATCC 27853
[16] = test system: S. epidermidis ATCC 12228; experiment: MIC, twofold microdilution, standard strain; format: cell-based; details: Staphylococcus epidermidis, read-out: MIC S. epidermidis ATCC 12228
[17] = test system: S. aureus NCTC 4163; experiment: MIC, twofold microdilution, standard strain; format: cell-based; details: Staphylococcus aureus, read-out: MIC S. aureus NCTC 4163
[18] = test system: S. epidermidis KR 4313 834/19; experiment: MIC, clinical S. epidermidis strain; format: cell-based; details: Staphylococcus epidermidis, KR4313834/19, quinolone-susceptible, 18 h of treatment
[19] = test system: S. epidermidis T 5399 848/19; experiment: MIC, clinical S. epidermidis strain; format: cell-based; details: Staphylococcus epidermidis, T5399848/19, quinolone-susceptible, 18 h of treatment
[20] = test system: M. tuberculosis H37Rv; experiment: MABA (microplate Alamar blue assay) MIC; format: cell-based; details: Mycobacterium tuberculosis, 336 h, read-out: MIC M. tuberculosis H37Rv
[21] = test system: standard staphylococci (S. aureus, S. epidermidis); experiment: MIC, standard Gram-positive strains as a group; format: cell-based; details: Staphylococcus aureus; range over standard Gram-positive strains; read-out: MIC against standard staphylococci
[22] = test system: S. epidermidis T 5253 845/19; experiment: MIC, clinical S. epidermidis strain; format: cell-based; details: Staphylococcus epidermidis, T5253845/19, quinolone-resistant, 18 h of treatment
[23] = test system: S. epidermidis T 5501 851/19; experiment: MIC, clinical S. epidermidis strain; format: cell-based; details: Staphylococcus epidermidis, T5501851/19, read-out: MIC T 5501 851/19, quinolone-susceptible, 18 h of treatment
[24] = test system: M. tuberculosis strains; experiment: MABA MIC, mycobacterial strains as a group; format: cell-based; details: Mycobacterium tuberculosis; summary over strains; read-out: MIC antimycobacterial (strain not specified)
[25] = KR4358/2840/19, clinical S. epidermidis, quinolone-susceptible, 18 h of treatment

Row | Structure (SMILES) | IC50 [1] [µM] | MIC [2] [µg/mL] | MIC ([3]; ATCC6538, 18 h of treatment) [µg/mL] | MIC [4] [µg/mL] | MIC [5] [µg/mL] | MIC ([6]; ATCC25923, 18 h of treatment) [µg/mL] | MIC ([7]; ATCC29213, 18 h of treatment) [µg/mL] | IC50 [8] [µM] | SI SW620 [8] | IC50 ([9]; Homo sapiens) [µM] | SI PC3 [10] | MIC ([11]; ATCC35984, 18 h of treatment) [µg/mL] | IC50 [13] [µM] | SI SW480 [13] | MIC ([15]; ATCC27853, 18 h of treatment) [µg/mL] | MIC [18] [µg/mL] | MIC [19] [µg/mL] | MIC [21] [µg/mL] | MIC [22] [µg/mL] | MIC [23] [µg/mL] | further results
1 | CCCCCCCC/C=C\CCCCCCCC(=O)N1CCCC2CN(c3c(F)cc4c(=O)c(C(=O)O)cn(C5CC5)c4c3OC)CC21 (centres unmarked) [Compound 4m, 1-Cyclopropyl-6-fluoro-8-methoxy-7-{1-(Z)-octadec-9-enoyl-octahydro-pyrrolo[3,4-b]pyridin-6-yl}-4-oxo-1,4-dihydro-quinoline-3-carboxylic acid] | 92.3 ± 6.1 | > 512 | 128 (≈ 192 µM) | > 512 | > 512 | 256 (≈ 384 µM) | 512 (≈ 769 µM) | 3.4 ± 0.7 | 27.1 | < 5 | 71.0 | 256 (≈ 384 µM) | 4.6 ± 1.4 | 20.1 | 128 (≈ 192 µM) | > 512 | > 512 | > 32 | > 512 | > 512 | MIC ([12]; KR4358/2840/19, 18 h): > 512 µg/mL; MIC ([14]; ATCC25922, 18 h of treatment): 512 µg/mL (≈ 769 µM); MIC ([16]; ATCC12228, 18 h): > 512 µg/mL; MIC ([17]; NCTC4163, 18 h of treatment): 128 µg/mL (≈ 192 µM); MIC [20]: > 512 µg/mL
2 | CCCCCCCC/C=C/CCCCCCCC(=O)N1CCCC2CN(c3c(F)cc4c(=O)c(C(=O)O)cn(C5CC5)c4c3OC)CC21 (centres unmarked) [Compound 5m, 1-Cyclopropyl-6-fluoro-8-methoxy-7-{1-(E)-octadec-9-enoyl-octahydro-pyrrolo[3,4-b]pyridin-6-yl}-4-oxo-1,4-dihydro-quinoline-3-carboxylic acid] | 91.6 ± 4.6 | > 512 | > 512 | > 512 | 256 (≈ 384 µM) | > 512 | > 512 | 8.7 ± 1.2 | 10.5 | 5 to 10 | 17.3 | > 512 | 6.7 ± 0.6 | 13.7 | 128 (≈ 192 µM) | 256 (≈ 384 µM) | 512 (≈ 769 µM) | > 32 | 512 (≈ 769 µM) | 512 (≈ 769 µM) | IC50 [10]: 5.3 ± 1.3 µM; MIC [12, 25]: 512 µg/mL (≈ 769 µM); MIC ([14]; ATCC25922, 18 h of treatment): > 512 µg/mL; MIC ([16]; ATCC12228, 18 h of treatment): > 512 µg/mL; MIC ([17]; NCTC4163, 18 h of treatment): > 512 µg/mL; MIC ([20]; 2 weeks of treatment): 512 µg/mL (≈ 769 µM)
3 | CC/C=C\C/C=C\C/C=C\CCCCCCCC(=O)N1CCCC2CN(c3c(F)cc4c(=O)c(C(=O)O)cn(C5CC5)c4c3OC)CC21 (centres unmarked) [Compound 6m, 1-Cyclopropyl-6-fluoro-8-methoxy-7-{1-(9Z,12Z,15Z)-octadeca-9,12,15-trienoyl-octahydro-pyrrolo[3,4-b]pyridin-6-yl}-4-oxo-1,4-dihydro-quinoline-3-carboxylic acid] | 96.6 ± 5.5 | 256 (≈ 387 µM) | 16 (≈ 24.2 µM) | 64 (≈ 96.7 µM) |  | 32 (≈ 48.3 µM) | 16 (≈ 24.2 µM) | 15.6 ± 2.6 | 6.2 |  | 6.7 | 32 (≈ 48.3 µM) | 16.7 ± 3.1 | 5.8 | > 512 | 64 (≈ 96.7 µM) | 32 (≈ 48.3 µM) | 8 to 32 (≈ 12.1 to 48.3 µM) | 256 (≈ 387 µM) | 128 (≈ 193 µM) | MIC ([5]; 2 weeks of treatment): 128 µg/mL (≈ 193 µM); IC50 [10]: 14.4 ± 2.4 µM; MIC [24]: ≥ 128 µg/mL; MIC [12, 25]: 64 µg/mL (≈ 96.7 µM); MIC ([14]; ATCC25922, 18 h): 256 µg/mL (≈ 387 µM); MIC ([16]; ATCC12228, 18 h of treatment): 32 µg/mL (≈ 48.3 µM); MIC ([17]; NCTC4163, 18 h of treatment): 16 µg/mL (≈ 24.2 µM); MIC [20]: 256 µg/mL (≈ 387 µM)
4 | CCCCCCCCCCCCCCCC(=O)N1CCC[C@H]2CN(c3c(F)cc4c(=O)c(C(=O)O)cn(C5CC5)c4c3OC)C[C@H]21 [Compound 9m, 1-Cyclopropyl-6-fluoro-7-(1-hexadecanoyl-octahydro-pyrrolo[3,4-b]pyridin-6-yl)-8-methox-4-oxo-1,4-dihydro-quinoline-3-carboxylic acid] | 96.7 ± 2.6 | 512 (≈ 800 µM) |  | 512 (≈ 800 µM) | > 512 |  |  | 10.4 ± 1.4 | 9.3 | 5 to 10 | 11.9 |  | 9.4 ± 2.3 | 10.3 |  | 512 (≈ 800 µM) | 512 (≈ 800 µM) | > 32 | 512 (≈ 800 µM) | 512 (≈ 800 µM) | MIC ([3]; ATCC6538, 18 h): > 512 µg/mL; MIC ([6]; ATCC25923, 18 h): > 512 µg/mL; MIC ([7]; ATCC29213, 18 h): > 512 µg/mL; IC50 [9]: 5.6 to 10.4 µM; IC50 [10]: 8.1 ± 1.5 µM; MIC ([11]; ATCC35984, 18 h): > 512 µg/mL; MIC ([12]; KR4358/2840/19, 18 h): > 512 µg/mL; MIC ([14]; ATCC25922, 18 h): > 512 µg/mL; MIC ([15]; ATCC27853, 18 h): > 512 µg/mL; MIC ([16]; ATCC12228, 18 h): > 512 µg/mL; MIC ([17]; NCTC4163, 18 h): > 512 µg/mL; MIC [20]: > 512 µg/mL
